Experimental findings from paper PMC9699072 (Molecules, 2022) are described below.

The nature of assay [1]: FRAP (ferric reducing antioxidant power) assay. The format is biochemical. The following applies: for FRAP TE (Trolox equivalent): mean ± SEM, n = 3, 1 h, 37 °C, pH 3.6. Here is the method: The FRAP (ferric reducing antioxidant power) assay measures the ability of antioxidants to reduce the ferric 2,4,6-tripyridyl-s-triazine complex [Fe(TPTZ)2]^3+ to the intensely blue ferrous complex [Fe(TPTZ)2]^2+ in an acidic medium. The measurements were performed as previously described in detail. The results are expressed as TE (Trolox equivalents).
The FRAP (ferric reducing antioxidant power) assay measures the ability of antioxidants to reduce the ferric 2,4,6-tripyridyl-s-triazine complex [Fe (TPTZ)2]^3+ to the intensely blue ferrous complex [Fe (TPTZ)2]^2+ (λ = 593 nm) in acidic medium. 2,4,6-Tris(pyridin-2-yl)-1,3,5-triazine (TPTZ), FeCl3·6H2O, Trolox, quercetin and DMSO were obtained from Sigma-Aldrich Chemical Co. (St. Louis, MO, USA). The FRAP reagent contained 2.5 mL of 10 mM TPTZ solution in 40 mM HCl, 2.5 mL of 20 mM FeCl3·6H2O water solution, and 25 mL of 0.3 M acetate buffer (pH 3.6). Aliquots of 10 µL of the test compound solution in DMSO (0.5 mM) were mixed with 240 µL of FRAP reagent, and the absorbance of the mixture was measured spectrophotometrically (FLUOStar OPTIMA microplate spectrophotometer (BMG Labtech, Ortenberg, Germany)) at 600 nm after 1 h incubation at 37 °C against a blank. Trolox was used as a reference compound. Quercetin was used as a positive control. A calibration curve with linear formula y = 0.03x (R^2 = 0.998, p < 0.0001) was prepared for Trolox solutions in DMSO at a range of 2.5–100 µM, and the results are expressed as Trolox equivalents (TE), the values calculated as the ratio of the concentrations of Trolox and the test compound, resulting in the same effect.

Assay [2] in a line: ORAC-FL (oxygen radical absorbance capacity) assay. The format is biochemical. The following applies: mean ± SEM, n = 3, 2 h, 10 μM compound and Trolox. From the text: In the oxygen radical absorbance capacity (ORAC-FL) assay, 2,2′-azobis-(2-methylpropionamidine) dihydrochloride (AAPH) is used as a free peroxyl radical generator, and fluorescein (FL) is used as a fluorescent probe. The method is based on measuring the decrease in the intensity of fluorescence with time, which characterizes the degree of decay of the fluorescent probe under the influence of peroxyl radicals. In the presence of antioxidants, the degree of decay of the fluorescent probe decreases and, accordingly, the fluorescence intensity increases. The results are expressed as TE (Trolox equivalents).
The ORAC assay utilizes a biologically relevant radical source, 2,2′-azobis(2-amidinopropane) dihydrochloride (AAPH)-derived peroxyl radicals. Thus, it is a more physiologically relevant assay than ABTS and FRAP.
The oxygen radical absorbance capacity (ORAC) was determined by the ability of compounds to protect fluorescein (FL) from peroxyl radicals that are generated by AAPH according to the known method with minor variations. The reaction was carried out at 37 °C in black 96-well plates (SPL life sciences), and the final volume of the reaction mixture was 200 µL per well. The fluorescence was recorded by Tecan M1000 PRO microplate reader (Switzerland) at 485 nm excitation and 520 nm emission.
The 0.7 mM fluorescein sodium salt stock solution in PBS pH 7.4 (137 mM sodium chloride, 2.7 mM potassium chloride, and 10 mM phosphate buffer) was prepared and stored at 4–5 °C no longer than one month. An aliquot of the fluorescein stock solution was further diluted with PBS immediately before each assay to yield a 70 nM working solution. The 133 mM AAPH solution in PBS was prepared immediately before use. The test compounds and Trolox standard were dissolved in DMSO to 400 μM. The final concentration was 10 μM for all of the samples.
The blank was composed of 15 μL PBS pH 7.4, 5 μL DMSO (final concentration: 2.5% (v/v)), 120 μL FL, and 60 μL AAPH, and it was included in each assay. PBS pH 7.4 (15 μL), antioxidant (the test compound or Trolox, 5 μL), and FL (120 μL, final concentration: 42 nM) solutions were placed in a black 96-well microplate and were pre-incubated for 15 min at 37 °C. AAPH solution (60 μL, final concentration 40 mM) was then added rapidly using a multichannel pipette. The fluorescence was recorded every minute for 2 h. A Trolox standard curve was also obtained in each assay. All reactions were carried out in quadruplicate, and two to four independent assays were performed for each sample.
Antioxidant curves (fluorescence vs. time) were first normalized to the curve of the blank (without antioxidant) corresponding to the same assay, and the net AUC corresponding to a sample was calculated by subtracting the AUC corresponding to the blank. The ORAC value was obtained by dividing the latter curve by the Trolox curve obtained in the same assay at 10 μM concentrations of compounds and Trolox. Final ORAC values, Trolox equivalents (TE), were expressed as μmol test compounds per μmol Trolox, where the value of TE for Trolox was taken as 1. Data were expressed as means ± SEM.

Values joined by “and” are separate entries in the source; they are usually repeats but may differ in a detail not shown here. Identical values can stand only once. Counter-ions that a name gives are not always drawn.

In the case of `CC1=NNC(=O)/C1=N\O` [1j], in assay [1], the “FRAP TE (Trolox equivalent)” value is reported as 0.09 ± 0.01 TE. Further, in assay [2], the “ORAC-FL TE (Trolox equivalent)” value is recorded as 2.85 ± 0.28 TE.
In the same order, the values of `Cl.Nc1c(C(F)(F)C(F)(F)F)n[nH]c1O.O` [4g, 4-Amino-3-(pentafluoroethyl)-1H-pyrazol-5-ol hydrate hydrochloride] are 0.88 ± 0.04 TE and 0.54 ± 0.03 TE.
In the same order, the values of `Cc1n[nH]c(O)c1N.Cl` [4j, 4-Amino-3-methyl-1H-pyrazol-5-ol hydrochloride] are 1.04 ± 0.04 TE and 2.06 ± 0.16 TE.
The matching figures for `O=C1NN=C(C(F)(F)F)/C1=N/O` [1e]: 0.07 ± 0.01 TE and 0.98 ± 0.03 TE.
Take `Cl.Nc1c(C(F)(F)C(F)(F)F)nn(-c2ccccc2)c1O.O` [4b, 4-Amino-3-(pentafluoroethyl)-1-phenyl-1H-pyrazol-5-ol hydrate hydrochloride]: in assay [1], the “FRAP TE (Trolox equivalent)” value amounted to 0.75 ± 0.07 TE. Moreover, in assay [2], the “ORAC-FL TE (Trolox equivalent)” value is on record as 2.12 ± 0.17 TE.
In the same order, the values of `Cl.Nc1c(C(F)(F)C(F)(F)C(F)(F)F)n[nH]c1O.O` [4h, 4-Amino-3-(heptafluoropropyl)-1H-pyrazol-5-ol hydrate hydrochloride] are 1.03 ± 0.04 TE and 0.63 ± 0.04 TE.
For the compound `Cc1nn(-c2ccccc2)c(O)c1N.Cl.O` [4d, 4-Amino-3-methyl-1-phenyl-1H-pyrazol-5-ol hydrochloride hydrate], the results for the “FRAP TE (Trolox equivalent)” value in assay [1] and in assay [1] (listed as APH) were 0.98 ± 0.08 TE and 0.98 TE, respectively. Further, the entries for the “ORAC-FL TE (Trolox equivalent)” value in assay [2] and in assay [2] (listed as APH) were 4.39 ± 0.04 TE and 4.39 TE, respectively.
With `O=C1NN=C(C(F)(F)C(F)(F)F)/C1=N/O` [1g], the “FRAP TE (Trolox equivalent)” value in assay [1] is on record as 0.13 ± 0.01 TE. The “ORAC-FL TE (Trolox equivalent)” value in assay [2] turned out to be 1.87 ± 0.04 TE.
`Oc1cc(C(F)(F)F)nn1-c1ccccc1` [CF3-EDA, 3-trifluoromethyl-1-phenylpyrazol-5-ol, reference compound]: in assay [1] (FRAP test, relative to EDA), the “Ferric reducing activity lower than that of EDA” value is given as 20%. Besides, the “FRAP TE (Trolox equivalent)” value in assay [1] is reported as 0.63 ± 0.03 TE. Also, in assay [2], the “ORAC-FL TE (Trolox equivalent)” value is 3.89 TE and 3.89 ± 0.04 TE.
Regarding “3-methyl-1-phenyl-2-pyrazolin-5-one [EDA, reference compound]”, in assay [1], the “FRAP TE (Trolox equivalent)” value came out at 0.80 ± 0.01 TE. Besides, in assay [2], the “ORAC-FL TE (Trolox equivalent)” value was 3.71 TE and 3.71 ± 0.06 TE.
As for `Cl.Nc1c(C(F)(F)F)nn(-c2ccccc2)c1O` [4a, 4-Amino-3-(trifluoromethyl)-1-phenyl-1H-pyrazol-5-ol hydrochloride], the “FRAP TE (Trolox equivalent)” value in assay [1] was 0.89 ± 0.05 TE. The “ORAC-FL TE (Trolox equivalent)” value in assay [2] was 3.49 TE and 3.49 ± 0.16 TE.
With `Cl.Nc1c(C(F)(F)C(F)(F)C(F)(F)C(F)(F)F)n[nH]c1O.O` [4i, 4-Amino-3-(nonafluorobutyl)-1H-pyrazol-5-ol hydrate hydrochloride], the “FRAP TE (Trolox equivalent)” value in assay [1] is 0.75 ± 0.05 TE. In addition, the “ORAC-FL TE (Trolox equivalent)” value in assay [2] worked out at 1.83 ± 0.02 TE.
In the same order, the values of `Cl.Nc1c(C(F)(F)F)n[nH]c1O` [4e, 4-Amino-3-(trifluoromethyl)-1H-pyrazol-5-ol hydrochloride] are 1.02 ± 0.02 TE and 0.90 ± 0.19 TE.
For the compound `Nc1c(C(F)(F)C(F)(F)C(F)(F)C(F)(F)F)nn(-c2ccccc2)c1O` [4c, 5-Hydroxy-1-phenyl-3-(nonafluorobuthyl)-1H-pyrazol-4-ammonium hydrochloride], the “FRAP TE (Trolox equivalent)” value in assay [1] came to 0.98 ±0.05 TE. Further, the “ORAC-FL TE (Trolox equivalent)” value in assay [2] is reported as 2.82 ± 0.2 TE.
